The values below come from patent publication US8501770B2 (ArQule, Inc., priority 2009, dated 2013).

The target in experiment [1] is T1, Full-length inactive AKT1 (Homo sapiens, UniProt P31749). The experiment can be described thus: Inactive Akt HTRF Assay (Akt1). (Time-resolved FRET reads energy transfer from a long-lived donor to a nearby acceptor.)
Description: AKT1 activity was assayed using CisBio KinEASE™ HTRF Assay technology. This technology utilizes a proprietary biotinylated peptide substrate (STKS3), streptavidin labeled XL665 antibody, and STK antibody-Eu^3+-cryptate. AKT1 activation was achieved by the addition of the activating kinases PDK1 and MAPKAPK2, lipid vesicles, and ATP. The extent of STKS3 biotinylated peptide phosphorylation was determined using a phospho-STK antibody-Eu^3+-cryptate and streptavidin labeled XL665 antibody. XL665 was stimulated by Eu^3+-cryptate resulting in a TR-FRET signal proportional to the SKS3 phosphorylation level.
For experiment [2], the system named is LnCap. The experiment can be described thus: MTS Assay, cell proliferation, LnCap. The format is cell-based. The following applies: Homo sapiens, read-out: Average of [CELL], IC50, MTS (72 hours; 10 Percent; FBS) LnCap. On the procedure: (§1) Cell proliferation analysis. Cell survival was determined by the MTS assay. Briefly, cells were plated in a 96-well plate at 2,000-10,000 cells per well, cultured for 24 hours in complete growth medium, and then treated with various drugs and drug combinations for 72 hours. MTS was added and incubated for 4 hour, followed by assessment of cell viability using the microplate reader at 570 nm. Data were normalized to untreated controls and analyzed with Microsoft Excel.

Experiment [3] concerns Zr75-1. The experiment can be described thus: MTS Assay, cell proliferation, Zr75-1. The format is cell-based. Particulars: Homo sapiens, ZR-75-1, read-out: Average of [CELL], IC50, MTS (72 hours; 10 Percent; FBS) Zr75-1. On the procedure:
as §1

For experiment [4], the target named is T1, Full-length inactive AKT1. The experiment in a line: Inactive Akt Alpha Screen Assay. It is filed as biochemical. Particulars: values not marked with "*"; read-out: Akt1 IC50, (AlphaScreen). Summed up: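 AlphaScreen read-out (excitation 640 nm, emission 570 nm) after 90 min incubation at room temperature in the dark. Signal comes from crosstide phosphorylation by AKT1, which was activated by added PDK1, MAPKAPK2, ATP and lipid vesicles, captured via phospho-AKT substrate antibody and streptavidin beads.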

The subject of experiment [5] is A2780. The experiment can be described thus: MTS Assay, cell proliferation, A2780. The format is cell-based. The following applies: Homo sapiens, read-out: Average of [CELL], IC50, MTS (72 hours; 10 Percent; FBS) A2780. Here is the method: as §1
The subject of experiment [6] is AN3CA. The experiment can be described thus: MTS Assay, cell proliferation, AN3CA. The format is cell-based. The following applies: Homo sapiens, AN3-CA, read-out: Average of [CELL], IC50, MTS (72 hours; 10 Percent; FBS) AN3CA. Here is the method: as §1
Experiment [7] has as its system BT474. The experiment in a line: MTS Assay, cell proliferation, BT474. It is filed as cell-based. The following applies: Homo sapiens, BT-474, read-out: Average of [CELL], IC50, MTS (72 hours; 10 Percent; FBS) BT474. Here is the method: as §1
Experiment [8] concerns IGROV. The experiment in a line: MTS Assay, cell proliferation, IGROV. Particulars: read-out: Average of [CELL], IC50, MTS (72 hours; 10 Percent; FBS) IGROV. It is filed as cell-based. Here is the method: as §1

T1 sequence (P31749 whole entry): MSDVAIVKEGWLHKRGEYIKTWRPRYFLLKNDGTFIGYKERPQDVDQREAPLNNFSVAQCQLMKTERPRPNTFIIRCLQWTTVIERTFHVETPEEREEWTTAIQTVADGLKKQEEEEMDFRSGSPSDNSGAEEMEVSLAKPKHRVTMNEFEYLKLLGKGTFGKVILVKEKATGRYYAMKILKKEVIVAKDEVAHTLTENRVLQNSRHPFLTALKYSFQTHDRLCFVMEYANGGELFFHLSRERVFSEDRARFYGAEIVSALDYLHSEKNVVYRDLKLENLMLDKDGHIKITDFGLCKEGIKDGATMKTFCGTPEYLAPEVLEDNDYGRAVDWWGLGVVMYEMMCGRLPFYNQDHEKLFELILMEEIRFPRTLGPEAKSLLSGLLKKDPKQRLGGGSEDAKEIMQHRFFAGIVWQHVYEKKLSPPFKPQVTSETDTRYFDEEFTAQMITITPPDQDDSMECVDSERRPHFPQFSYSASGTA

The term IC50 denotes the concentration at which inhibition is half-maximal. Compound `Nc1ncccc1-c1nc2cccnc2n1-c1ccc(C(=O)NCc2ccccc2)cc1` [Example 178, 4-[2-(2-aminopyridin-3-yl)-3H-imidazo[4,5-b]pyridin-3-yl]-N-benzylbenzamide] came in with an IC50 in experiment [1] of 7.1 µM.
With `Nc1ncccc1-c1nc2ccc(-c3cn[nH]c3)nc2n1-c1ccc(CNC(=O)c2cccc(F)c2)cc1` [Example 305, N-(4-(2-(2-aminopyridin-3-yl)-5-(1H-pyrazol-4-yl)-3H-imidazo[4,5-b]pyridin-3-yl)benzyl)-3-fluorobenzamide], the IC50 in experiment [2] is 13 µM; in experiment [3] it was 8.2 µM; in experiment [4] it was 0.012 µM; in experiment [5], 6.8 µM; in experiment [6], 12 µM; in experiment [7], 4.2 µM.
Take `Nc1ncccc1-c1nc2ccc(-c3ccoc3)nc2n1-c1ccc(CNC(=O)c2cccc(F)c2)cc1` [Example 307, N-(4-(2-(2-aminopyridin-3-yl)-5-(furan-3-yl)-3H-imidazo[4,5-b]pyridin-3-yl)benzyl)-3-fluorobenzamide]: the IC50 in experiment [2] is 4.9 µM; in experiment [3] it was 9.1 µM; in experiment [4], 0.035 µM; in experiment [5], 2.9 µM; in experiment [6], 6.3 µM; in experiment [7] it was 3.6 µM.
For the compound `Nc1ncccc1-c1nc2ccc(-c3cccc(CO)c3)nc2n1-c1ccc(CNC(=O)c2cccc(F)c2)cc1` [Example 308, N-(4-(2-(2-aminopyridin-3-yl)-5-(3-(hydroxymethyl)phenyl)-3H-imidazo[4,5-b]pyridin-3-yl)benzyl)-3-fluorobenzamide], the half-maximal inhibitory concentration (IC50) in experiment [2] amounted to 2.6 µM; in experiment [3] it was 4.3 µM; in experiment [4] it was 0.021 µM; in experiment [5] it was 2.3 µM; in experiment [6], 2.5 µM; in experiment [7], 1.8 µM.
For `CC(=O)Nc1cccc(-c2ccc3nc(-c4cccnc4N)n(-c4ccc(CNS(=O)(=O)c5ccccc5)cc4)c3n2)c1` [Example 324, N-(3-(2-(2-aminopyridin-3-yl)-3-(4-(phenylsulfonamidomethyl)phenyl)-3H-imidazo[4,5-b]pyridin-5-yl)phenyl)acetamide], the IC50 in experiment [2] worked out at 4.2 µM; in experiment [3], 3.6 µM; in experiment [4] it was 0.014 µM; in experiment [5], 6.3 µM; in experiment [6] it was 5 µM; in experiment [7], 2.5 µM.
`Nc1ncccc1-c1nc2ccc(-c3ccccc3)nc2n1-c1ccc(C2(N)CCC2)cc1` [Example 351, 3-(3-(4-(1-aminocyclobutyl)phenyl)-5-phenyl-3H-imidazo[4,5-b]pyridin-2-yl)pyridin-2-amine]: the concentration for half-maximal inhibition (IC50) in experiment [2] came to 2.1 µM; in experiment [3], 4.2 µM; in experiment [5] it was 0.72 µM; in experiment [6] it was 0.62 µM; in experiment [7], 1.3 µM; in experiment [8], 1.7 µM.
